Data published in PubChem BioAssay (NCI).
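GI50: concentration for 50% inhibition of growth. TGI denotes the concentration required for complete inhibition of growth.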

Legend:
Test in all cases: NCI-60 cell line screen, 384-well format
RXF 393 renal = test system: RXF 393 renal
MALME-3M melanoma = test system: MALME-3M melanoma
A549 NSCLC = test system: A549 NSCLC
HOP-92 NSCLC = test system: HOP-92 NSCLC
UACC-62 melanoma = test system: UACC-62 melanoma
T-47D breast = test system: T-47D breast
COLO 205 colon = test system: COLO 205 colon
OVCAR-5 ovarian = test system: OVCAR-5 ovarian
CCRF-CEM leukemia = test system: CCRF-CEM leukemia
HS 578T breast = test system: HS 578T breast
A498 renal = test system: A498 renal
SR leukemia = test system: SR leukemia
SNB-75 CNS = test system: SNB-75 CNS
U251 glioblastoma = test system: U251 glioblastoma
MDA-MB-435 melanoma = test system: MDA-MB-435 melanoma
UACC-257 melanoma = test system: UACC-257 melanoma
RPMI-8226 leukemia = test system: RPMI-8226 leukemia
KM12 colon = test system: KM12 colon
SK-MEL-5 melanoma = test system: SK-MEL-5 melanoma
NCI-H322M lung = test system: NCI-H322M lung
HCC-2998 colon = test system: HCC-2998 colon
OVCAR-3 ovarian = test system: OVCAR-3 ovarian
SN12C renal = test system: SN12C renal
TK-10 renal = test system: TK-10 renal
NCI/ADR-RES ovarian = test system: NCI/ADR-RES ovarian
LOX IMVI melanoma = test system: LOX IMVI melanoma
ACHN renal = test system: ACHN renal
HT29 colon = test system: HT29 colon
NCI-H522 lung = test system: NCI-H522 lung
MDA-MB-468 breast = test system: MDA-MB-468 breast
PC-3 prostate = test system: PC-3 prostate
HL-60(TB) leukemia = test system: HL-60(TB) leukemia
SF-268 CNS = test system: SF-268 CNS
M14 melanoma = test system: M14 melanoma
HCT-116 colon = test system: HCT-116 colon
SK-MEL-28 melanoma = test system: SK-MEL-28 melanoma
HOP-62 NSCLC = test system: HOP-62 NSCLC
K-562 leukemia = test system: K-562 leukemia
CAKI-1 renal = test system: CAKI-1 renal
MOLT-4 leukemia = test system: MOLT-4 leukemia
HCT-15 colon = test system: HCT-15 colon
EKVX NSCLC = test system: EKVX NSCLC
NCI-H226 lung = test system: NCI-H226 lung
786-0 renal = test system: 786-0 renal
IGROV1 ovarian = test system: IGROV1 ovarian
SK-OV-3 ovarian = test system: SK-OV-3 ovarian
BT-549 breast = test system: BT-549 breast
DU-145 prostate = test system: DU-145 prostate
MDA-MB-231 breast = test system: MDA-MB-231 breast
SNB-19 CNS = test system: SNB-19 CNS
UO-31 renal = test system: UO-31 renal
OVCAR-4 ovarian = test system: OVCAR-4 ovarian
NCI-H460 NSCLC = test system: NCI-H460 NSCLC
SF-539 CNS = test system: SF-539 CNS
SW-620 colon = test system: SW-620 colon
SF-295 CNS = test system: SF-295 CNS
SK-MEL-2 melanoma = test system: SK-MEL-2 melanoma
NCI-H23 lung = test system: NCI-H23 lung
MCF7 breast = test system: MCF7 breast

NC1(Cc2ccc(Cl)cc2)CCN(c2ncnc3[nH]ccc23)CC1
GI50 (RXF 393 renal): 2.14 µM | TGI (RXF 393 renal): 7.4 µM | GI50 (MALME-3M melanoma): 2.25 µM | TGI (MALME-3M melanoma): 5.8 µM | GI50 (A549 NSCLC): 4.27 µM | TGI (A549 NSCLC): 15.5 µM | GI50 (HOP-92 NSCLC): 2.2 µM | TGI (HOP-92 NSCLC): 9.62 µM | GI50 (UACC-62 melanoma): 4.76 µM | TGI (UACC-62 melanoma): 16.4 µM | GI50 (T-47D breast): 2.35 µM | TGI (T-47D breast): 12.7 µM | GI50 (COLO 205 colon): 3.34 µM | TGI (COLO 205 colon): 12.3 µM | GI50 (OVCAR-5 ovarian): 6.84 µM | TGI (OVCAR-5 ovarian): 26.7 µM | GI50 (CCRF-CEM leukemia): 2.31 µM | TGI (CCRF-CEM leukemia): 10.8 µM | GI50 (HS 578T breast): 1.21 µM | TGI (HS 578T breast): 6.14 µM | GI50 (A498 renal): 3.16 µM | TGI (A498 renal): 14.8 µM | GI50 (SR leukemia): 2.07 µM | TGI (SR leukemia): 4 µM | GI50 (SNB-75 CNS): 1.54 µM | TGI (SNB-75 CNS): 7.76 µM | GI50 (U251 glioblastoma): 4.4 µM | TGI (U251 glioblastoma): 15.7 µM | GI50 (MDA-MB-435 melanoma): 2.41 µM | TGI (MDA-MB-435 melanoma): 6.35 µM | GI50 (UACC-257 melanoma): 1.93 µM | TGI (UACC-257 melanoma): 3.96 µM | GI50 (RPMI-8226 leukemia): 1.36 µM | TGI (RPMI-8226 leukemia): 4.48 µM | GI50 (KM12 colon): 2.25 µM | TGI (KM12 colon): 11 µM | GI50 (SK-MEL-5 melanoma): 3.17 µM | TGI (SK-MEL-5 melanoma): 12.8 µM | GI50 (NCI-H322M lung): 4.85 µM | TGI (NCI-H322M lung): 17.6 µM | GI50 (HCC-2998 colon): 1.96 µM | TGI (HCC-2998 colon): 5.94 µM | GI50 (OVCAR-3 ovarian): 9.12 µM | TGI (OVCAR-3 ovarian): 21.4 µM | GI50 (SN12C renal): 3.46 µM | TGI (SN12C renal): 14.9 µM | GI50 (TK-10 renal): 3.15 µM | TGI (TK-10 renal): 13.3 µM | GI50 (NCI/ADR-RES ovarian): 8.66 µM | TGI (NCI/ADR-RES ovarian): 21.1 µM | GI50 (LOX IMVI melanoma): 4.07 µM | TGI (LOX IMVI melanoma): 13.7 µM | GI50 (ACHN renal): 3.89 µM | TGI (ACHN renal): 15.8 µM | GI50 (HT29 colon): 2.63 µM | TGI (HT29 colon): 12.3 µM | GI50 (NCI-H522 lung): 5.41 µM | TGI (NCI-H522 lung): 19.5 µM | GI50 (MDA-MB-468 breast): 1.61 µM | TGI (MDA-MB-468 breast): 6.55 µM | GI50 (PC-3 prostate): 3.11 µM | TGI (PC-3 prostate): 15.8 µM | GI50 (HL-60(TB) leukemia): 3.01 µM | TGI (HL-60(TB) leukemia): 9.25 µM | GI50 (SF-268 CNS): 5.54 µM | TGI (SF-268 CNS): 18.2 µM | GI50 (M14 melanoma): 4.51 µM | TGI (M14 melanoma): 16.1 µM | GI50 (HCT-116 colon): 3.67 µM | TGI (HCT-116 colon): 13.4 µM | GI50 (SK-MEL-28 melanoma): 2.26 µM | TGI (SK-MEL-28 melanoma): 5.94 µM | GI50 (HOP-62 NSCLC): 4.77 µM | TGI (HOP-62 NSCLC): 17.2 µM | GI50 (K-562 leukemia): 3.4 µM | TGI (K-562 leukemia): 15.7 µM | GI50 (CAKI-1 renal): 3.96 µM | TGI (CAKI-1 renal): 16 µM | GI50 (MOLT-4 leukemia): 1.09 µM | TGI (MOLT-4 leukemia): 2.6 µM | GI50 (HCT-15 colon): 3.93 µM | TGI (HCT-15 colon): 17.8 µM | GI50 (EKVX NSCLC): 4.51 µM | TGI (EKVX NSCLC): 16.5 µM | GI50 (NCI-H226 lung): 5.53 µM | TGI (NCI-H226 lung): 18.1 µM | GI50 ([…]-0 renal): 2.33 µM | TGI (786-0 renal): 12.1 µM | GI50 (IGROV1 ovarian): 1.53 µM | TGI (IGROV1 ovarian): 9.67 µM | GI50 (SK-OV-3 ovarian): 3.84 µM | TGI (SK-OV-3 ovarian): 17.3 µM | GI50 (BT-549 breast): 1.63 µM | TGI (BT-549 breast): 5.8 µM | GI50 (DU-145 prostate): 8.33 µM | TGI (DU-145 prostate): 23 µM | GI50 (MDA-MB-231 breast): 4.76 µM | TGI (MDA-MB-231 breast): 16.4 µM | GI50 (SNB-19 CNS): 3.28 µM | TGI (SNB-19 CNS): 13.5 µM | GI50 (UO-31 renal): 4.28 µM | TGI (UO-31 renal): 17.6 µM | GI50 (OVCAR-4 ovarian): 16.4 µM | TGI (OVCAR-4 ovarian): 43.9 µM | GI50 (NCI-H460 NSCLC): 1.76 µM | TGI (NCI-H460 NSCLC): 9.36 µM | GI50 (SF-539 CNS): 1.46 µM | TGI (SF-539 CNS): 7.16 µM | GI50 (SW-620 colon): 4.6 µM | TGI (SW-620 colon): 16.2 µM | GI50 (SF-295 CNS): 2.74 µM | TGI (SF-295 CNS): 14.8 µM | GI50 (SK-MEL-2 melanoma): 7.52 µM | TGI (SK-MEL-2 melanoma): 19 µM | GI50 (NCI-H23 lung): 4 µM | TGI (NCI-H23 lung): 16 µM | GI50 (MCF7 breast): 2.55 µM | TGI (MCF7 breast): 12.7 µM
